What was measured:
COLO-829 (Melanoma) [1] = test: combination Emax (second highest fraction inhibited in the dose matrix, 72 h); higher = more inhibition; extreme values may be limits of the assay
Summary of the method: (§1)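 After 24 hours at 37°C and 5% CO2 in 1536-well plates, cells in DMEM/F12 or RPMI plus 10% FBS received two-drug dose matrices for 72 hours. Viability came from CellTiter-Glo 2.0 luminescence and was scaled as inhibition, anchored at 0 by vehicle wells and at 1 by blank wells. Combination Emax is taken as the second-highest inhibition in the matrix, and Bliss excess as the observed combination effect less EA + EB − EA·EB, with EA and EB the single-agent effects.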

[2] = tested on: OVCAR-8 (Ovarian Carcinoma); test: as above
Summary of the method: as §1

[3] = tested on: KARPAS-231 (B-Cell Non-Hodgkin's Lymphoma); test: as above
Summary of the method: as §1

[4] = tested on: KYSE-410 (Esophageal Squamous Cell Carcinoma); test: as above
Summary of the method: as §1

[5] = tested on: CAL-51 (Breast Carcinoma); test: as above
Summary of the method: as §1

[6] = tested on: TE-4 (Esophageal Squamous Cell Carcinoma); test: as above
Summary of the method: as §1

[7] = tested on: HCC-15 (Squamous Cell Lung Carcinoma); test: as above
Summary of the method: as §1

[8] = tested on: UMC-11 (Other Solid Carcinomas); test: as above
Summary of the method: as §1

[9] = tested on: LB771-HNC (Head and Neck Carcinoma); test: as above
Summary of the method: as §1

[10] = tested on: 639-V (Bladder Carcinoma); test: as above
Summary of the method: as §1

[11] = tested on: NCI-H747 (Colorectal Carcinoma); test: as above
Summary of the method: as §1

[12] = tested on: MHH-PREB-1 (B-Cell Non-Hodgkin's Lymphoma); test: as above
Summary of the method: as §1

[13] = tested on: SW626 (Colorectal Carcinoma); test: as above
Summary of the method: as §1

COLO-829 (Melanoma) [14] = test: Bliss excess, mean over the matrix (fraction); higher = more synergy
Summary of the method: as §1

[15] = tested on: OVCAR-8 (Ovarian Carcinoma); test: as above
Summary of the method: as §1

[16] = tested on: KARPAS-231 (B-Cell Non-Hodgkin's Lymphoma); test: as above
Summary of the method: as §1

[17] = tested on: KYSE-410 (Esophageal Squamous Cell Carcinoma); test: as above
Summary of the method: as §1

[18] = tested on: CAL-51 (Breast Carcinoma); test: as above
Summary of the method: as §1

[19] = tested on: TE-4 (Esophageal Squamous Cell Carcinoma); test: as above
Summary of the method: as §1

[20] = tested on: HCC-15 (Squamous Cell Lung Carcinoma); test: as above
Summary of the method: as §1

[21] = tested on: UMC-11 (Other Solid Carcinomas); test: as above
Summary of the method: as §1

[22] = tested on: LB771-HNC (Head and Neck Carcinoma); test: as above
Summary of the method: as §1

[23] = tested on: 639-V (Bladder Carcinoma); test: as above
Summary of the method: as §1

[24] = tested on: NCI-H747 (Colorectal Carcinoma); test: as above
Summary of the method: as §1

[25] = tested on: MHH-PREB-1 (B-Cell Non-Hodgkin's Lymphoma); test: as above
Summary of the method: as §1

[26] = tested on: SW626 (Colorectal Carcinoma); test: as above
Summary of the method: as §1
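Throughout, for Bliss excess, mean over the matrix: after 72 h of two-drug dosing.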

| SMILES | combination Emax (COLO-829 (Melanoma) [1]) | combination Emax [2] | combination Emax [3] | combination Emax [4] | combination Emax [5] | combination Emax [6] | combination Emax [7] | combination Emax [8] | combination Emax [9] | combination Emax [10] | combination Emax [11] | combination Emax [12] | combination Emax [13] | Bliss excess (COLO-829 (Melanoma) [14]) | Bliss excess [15] | Bliss excess [16] | Bliss excess [17] | Bliss excess [18] | Bliss excess [19] | Bliss excess [20] | Bliss excess [21] | Bliss excess [22] | Bliss excess [23] | Bliss excess [24] | Bliss excess [25] | Bliss excess [26] |
| --- | --- | --- | --- | --- | --- | --- | --- | --- | --- | --- | --- | --- | --- | --- | --- | --- | --- | --- | --- | --- | --- | --- | --- | --- | --- | --- |
| COc1nnc2ccc(N3CCC(c4ccc(OCCN5CCN(C)C(=O)[C@H]5C)cc4)CC3)nn12 [AZD5153] + CN(CC[C@H](CSC1=CC=CC=C1)NC2=C(C=C(C=C2)S(=O)(=O)NC(=O)C3=CC=C(C=C3)N4CCC(CC4)[C@H](C5=CC=CC=C5C6=CC=C(C=C6)Cl)O)S(=O)(=O)C(F)(F)F)CCO [AZD4320] (first compound max 1 µM, 7x7, partner max 1 µM) | 0.143 | 0.733 | 1 | 0.259 | 0.843 | 0.336 | 0.994 | 0.848 | 0.524 | 0.606 | 0.728 | 0.47 | 0.777 | -0.0466 | 0.0081 | -0.159 | 0.0046 | 0.0267 | 0.0449 | -0.0023 | 0.0086 | 0.0273 | 0.034 | -0.0055 | 0.0343 | 0.0477 |
| CC(=O)c1c(C)c2cnc(Nc3ccc(N4CCNCC4)cn3)nc2n(C2CCCC2)c1=O [Palbociclib] + CN(CC[C@H](CSC1=CC=CC=C1)NC2=C(C=C(C=C2)S(=O)(=O)NC(=O)C3=CC=C(C=C3)N4CCC(CC4)[C@H](C5=CC=CC=C5C6=CC=C(C=C6)Cl)O)S(=O)(=O)C(F)(F)F)CCO [AZD4320] (first compound max 10 µM, 7x7, partner max 1 µM) | 0.33 | 0.173 | 0.98 | 0.41 | 0.479 | 0.341 | 0.982 | 0.631 | 0.206 | 0.198 | 0.555 | 0.492 | 0.662 | -0.117 | -0.0261 | -0.0645 | -0.0667 | -0.123 | 0.001 | -0.0553 | 0.0057 | -0.0584 | -0.124 | -0.0425 | -0.041 | -0.0921 |
| C[C@@H](c1ccc2nccn2c1)n1nnc2ncc(-c3cnn(C)c3)nc21 [Savolitinib] + CN(CC[C@H](CSC1=CC=CC=C1)NC2=C(C=C(C=C2)S(=O)(=O)NC(=O)C3=CC=C(C=C3)N4CCC(CC4)[C@H](C5=CC=CC=C5C6=CC=C(C=C6)Cl)O)S(=O)(=O)C(F)(F)F)CCO [AZD4320] (first compound max 1 µM, 7x7, partner max 1 µM) | 0.278 | 0.0738 | 0.907 | 0.174 | 0.207 | 0.145 | 0.916 | 0.401 | 0.154 | 0.172 | 0.208 | 0.139 | 0.582 | -0.0397 | -0.0373 | -0.0299 | -0.0588 | -0.0375 | -0.0244 | -0.0203 | 0.0211 | -0.042 | -0.0957 | -0.0808 | -0.0481 | -0.108 |

— the supplement of paper PMC11061612
